Tests used:
[1] = Rat pharmacokinetic evaluation test, oral administration; format: in vivo; conditions: male, SD rats, p.o. 5 mg/kg, plasma; for MRT inf: read-out: MRT0-∞
Procedure: SD rats were used as test animals to study the pharmacokinetic behavior of the compounds of the present invention in the rat body (plasma) after oral administration at a dose of 5 mg/kg.
3 SD rats/group, male, from Shanghai Jiesijie Experimental Animal Co., Ltd., animal production license number (SCXK (Shanghai) 2013-0006 N0.311620400001794).
• 0.5% CMC-Na (1% Tween80) was dissolved with ultrasound, and formulated into a clear solution or homogeneous suspension.
• p.o. respectively after the rats were fasted overnight; • the p.o. dose was 5 mg/kg and the administration volume was 10 mL/kg.
After oral administration of rats, 0.2 mL of blood was collected from the jugular vein at 0.25 h, 0.5 h, 1.0 h, 2.0 h, and 4.0 h, placed in an EDTA-2K test tube, centrifuged at 6000 rpm for 6 min at 4° C. to separate plasma which was stored at −80° C.; the rats can eat 4 h after administration.
• 1) 160 μL of acetonitrile was added to 40 μL of plasma sample for precipitation, mixed and centrifuged at 3500×g for 5 to 20 min. • 2) the treated supernatant solution was taken and subjected to LC/MS/MS to analyze the concentrations of the test compounds. LC/MS/MS analysis instrument: AB Sciex API 4000 Qtrap.
• Liquid phase conditions: Shimadzu LC-20AD pump • chromatographic column: AgilentZORBAX XDB-C18 (50×2.1 mm, 3.5 μm) mobile phase: liquid A was 0.1% aqueous formic acid solution, liquid B was acetonitrile • flow rate: 0.4 mL/min • Elution time: 0-4.0 min, the eluent was as follows:
The main pharmacokinetic parameters were calculated using WinNonlin 6.1.

[2] = Liver microsomal metabolism stability test, human; format: in vitro ADME; conditions: for half-life at 1 μM: human liver microsomes 0.5 mg/mL, compound 1 μM, NADPH/UDPGA; for Remaining rate: human liver microsomes, 60 min
Procedure: The purpose of this experiment was to detect the stability of the example compounds in liver microsomes of rats, dogs and humans.
• Formulation of working solution of compounds: compound stock solution was added to phosphate buffer to a final concentration of 20 μM.
Dilution was performed with 100 mM phosphate buffer to a final concentration of 0.625 mg/mL.
NADPH (reduced nicotinamide adenine dinucleotide phosphate) and UDPGA (uridine diphosphate glucuronic acid) were weighed, 100 mM phosphate buffer was added, and the final concentration was 20 mM.
1 mg of Alamethicin was weighed, and 200 μL of DMSO was added to formulate a 5 mg/mL solution. Then dilution was performed with phosphate buffer to a final concentration of 50 μg/mL.
Stop solution: the stop solution contains 100 ng/mL labetalol hydrochloride and 400 ng/mL tolbutamide and cold acetonitrile as internal standard.
400 μL of formulated liver microsomes, 25 μL of compound working solution and 25 μL of Alamethicin were added in sequence to the 96-well plate, and pre-incubated at 37° C. for 10 min. Then 50 μL of formulated NADPH/UDPGA was added to start the reaction and the mixture was incubated at 37° C. The total volume of the reaction system was 500 μL. The final contents of each component are as follows:
• Instrument: Shimadzu LC-30 AD; • Chromatographic column: XBridge® C18 (50*4.6 mm, 5 μm particle size); • Mobile phase: A: 0.1% formic acid solution, B: methanol Wash gradient: 0.2-1.6 min 5% A to 95% A, 3.0-3.1 min 95% A to 5% A Run time: 4.0 min.
• Instrument: API5500 liquid chromatography mass spectrometer, AB Sciex; • Ion source: electrospray ionization source (ESI); • Drying gas: N2, temperature 500° C.; • Electrospray voltage: 5000 V; • Detection mode: positive ion detection; • Scanning mode: reaction monitoring (MRM) mode.

[3] = biological target: T1, CYP450 enzyme subtype 1A2 (Homo sapiens, UniProt P05177); assay: CYP enzyme single point inhibition test, 1A2; format: in vitro ADME; conditions: human liver microsomes, single point method
T1 construct: Human liver microsome incubation system was used; from tissue; host or cells: human liver microsomes
T1 sequence (P05177 1-516): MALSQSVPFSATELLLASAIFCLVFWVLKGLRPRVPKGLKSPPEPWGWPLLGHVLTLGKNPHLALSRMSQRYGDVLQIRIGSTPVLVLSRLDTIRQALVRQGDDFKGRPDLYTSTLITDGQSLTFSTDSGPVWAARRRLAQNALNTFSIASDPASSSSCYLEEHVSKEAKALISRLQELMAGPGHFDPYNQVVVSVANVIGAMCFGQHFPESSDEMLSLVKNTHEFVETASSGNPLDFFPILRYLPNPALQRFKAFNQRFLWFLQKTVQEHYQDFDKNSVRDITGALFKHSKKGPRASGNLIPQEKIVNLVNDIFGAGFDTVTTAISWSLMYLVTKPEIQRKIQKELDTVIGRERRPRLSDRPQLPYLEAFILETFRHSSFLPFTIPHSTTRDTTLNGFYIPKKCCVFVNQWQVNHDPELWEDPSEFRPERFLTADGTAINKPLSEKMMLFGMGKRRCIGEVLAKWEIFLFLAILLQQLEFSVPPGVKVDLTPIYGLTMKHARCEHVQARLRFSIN
Procedure: (§1) Human liver microsome incubation system was used, and the single point method was used to quickly predict the inhibition on CYP450 enzyme subtypes (1A2, 2C19, 2D6, 3A4-M, and 3A4-T) by compounds.
(§2) For 2.5 mM NADPH, 4.165 mg of NADPH (reduced nicotinamide adenine dinucleotide phosphate) was weighed and 100 mM phosphate buffer was added to 2 mL. For 0.25 mg/mL microsomes, 50 μL of 20 mg/mL microsomes was added to 4 mL of 100 mM phosphate buffer and mixed evenly.
(§3) The test example compound was weighed, diluted to 10 mM with DMSO, and then diluted to 100 μM with 100 mM phosphate buffer.
(§4) • 1. 40 μL of liver microsomes, 10 μL of substrate, and 10 μL of test compound were added in a 96-well plate and the mixture was pre-incubated for 3 min. • 2. 40 μL of NADPH was added. • 3. At 20 min, 300 μL of acetonitrile stop solution containing internal standard was added. • 4. The mixture was centrifuged and the sample was loaded.

[4] = biological target: T2, CYP450 enzyme subtype 2C19 (Homo sapiens, UniProt P33261); assay: CYP enzyme single point inhibition test, 2C19; format: in vitro ADME; conditions: human liver microsomes, single point method
T2 construct: Human liver microsome incubation system was used; from tissue; host or cells: human liver microsomes
T2 sequence (P33261 whole entry): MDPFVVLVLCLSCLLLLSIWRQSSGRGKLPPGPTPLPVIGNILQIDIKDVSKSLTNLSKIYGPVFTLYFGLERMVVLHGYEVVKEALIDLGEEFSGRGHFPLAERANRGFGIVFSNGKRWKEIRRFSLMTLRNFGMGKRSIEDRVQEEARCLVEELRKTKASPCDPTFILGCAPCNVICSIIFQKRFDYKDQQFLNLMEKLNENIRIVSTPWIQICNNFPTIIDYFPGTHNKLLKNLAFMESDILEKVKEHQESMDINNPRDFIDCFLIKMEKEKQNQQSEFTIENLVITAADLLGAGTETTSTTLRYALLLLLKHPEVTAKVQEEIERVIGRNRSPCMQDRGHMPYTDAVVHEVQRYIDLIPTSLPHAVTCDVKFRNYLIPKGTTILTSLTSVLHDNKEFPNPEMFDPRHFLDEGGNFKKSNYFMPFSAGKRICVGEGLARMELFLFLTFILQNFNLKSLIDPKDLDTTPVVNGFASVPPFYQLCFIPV
Procedure: as §1, §2, §3, §4

[5] = biological target: T3, CYP450 enzyme subtype 2D6 (Homo sapiens, UniProt P10635); assay: CYP enzyme single point inhibition test, 2D6; format: in vitro ADME; conditions: human liver microsomes, single point method
T3 construct: Human liver microsome incubation system was used; from tissue; host or cells: human liver microsomes
T3 sequence (P10635 whole entry): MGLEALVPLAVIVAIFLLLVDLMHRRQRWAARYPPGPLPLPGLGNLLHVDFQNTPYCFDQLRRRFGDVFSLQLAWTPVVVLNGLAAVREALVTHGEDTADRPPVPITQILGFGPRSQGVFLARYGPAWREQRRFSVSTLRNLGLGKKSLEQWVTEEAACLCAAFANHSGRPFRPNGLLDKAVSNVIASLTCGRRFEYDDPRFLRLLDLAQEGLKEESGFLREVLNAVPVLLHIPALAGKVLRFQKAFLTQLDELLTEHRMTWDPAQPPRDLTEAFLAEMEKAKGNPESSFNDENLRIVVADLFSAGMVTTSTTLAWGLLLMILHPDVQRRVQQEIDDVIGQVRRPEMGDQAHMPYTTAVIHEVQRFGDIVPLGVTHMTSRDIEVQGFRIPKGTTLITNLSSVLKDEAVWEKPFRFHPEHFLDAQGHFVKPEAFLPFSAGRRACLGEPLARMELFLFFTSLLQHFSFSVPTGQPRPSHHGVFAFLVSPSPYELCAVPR
Procedure: as §1, §2, §3, §4

[6] = biological target: T4, CYP450 enzyme subtype 3A4-M (Homo sapiens, UniProt P08684); assay: CYP enzyme single point inhibition test, 3A4-M; format: in vitro ADME; conditions: human liver microsomes, single point method
T4 construct: Human liver microsome incubation system was used; from tissue; host or cells: human liver microsomes
T4 sequence (P08684 whole entry): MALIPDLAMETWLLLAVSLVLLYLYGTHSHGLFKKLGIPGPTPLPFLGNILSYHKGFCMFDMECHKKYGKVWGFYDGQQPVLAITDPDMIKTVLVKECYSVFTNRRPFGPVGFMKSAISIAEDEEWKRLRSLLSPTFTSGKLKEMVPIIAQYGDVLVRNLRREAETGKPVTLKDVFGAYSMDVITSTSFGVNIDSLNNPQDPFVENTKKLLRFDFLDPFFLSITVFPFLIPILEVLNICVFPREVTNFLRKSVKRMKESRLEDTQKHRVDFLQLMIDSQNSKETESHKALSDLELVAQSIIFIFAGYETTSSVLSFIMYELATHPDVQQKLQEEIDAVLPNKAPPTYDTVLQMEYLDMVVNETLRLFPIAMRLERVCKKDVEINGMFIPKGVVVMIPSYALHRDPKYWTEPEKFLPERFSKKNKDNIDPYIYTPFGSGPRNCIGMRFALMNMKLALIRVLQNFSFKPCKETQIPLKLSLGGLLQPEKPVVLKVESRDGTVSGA
Procedure: as §1, §2, §3, §4

[7] = biological target: T5, CYP450 enzyme subtype 3A4-T (Homo sapiens, UniProt P08684); assay: CYP enzyme single point inhibition test, 3A4-T; format: in vitro ADME; conditions: human liver microsomes, single point method
T5 construct: Human liver microsome incubation system was used; from tissue; host or cells: human liver microsomes
T5 sequence (P08684 whole entry): as above
Procedure: as §1, §2, §3, §4

SMILES	AUC(0-inf) [1] [ng·h/mL]	Cmax [1] [ng/mL]	Tmax [1] [min]	MRT inf [1] [min]	half-life at 1 μM [2] [min]	Remaining rate [2] [%]	IC50 [3] [µM]	IC50 [4] [µM]	IC50 [5] [µM]	IC50 [6] [µM]	IC50 [7] [µM]
CCCCC1=NC2(CC3CC3C2)C(=O)N1Cc1ccc(-c2ccccc2S(=O)(=O)Nc2noc(C)c2C)c(COCC)c1 (centres unmarked) [Example 87, 4′-((2′-butyl-5′-oxaspiro[bicyclo[3.1.0]hexane-3,4′-imidazole]-1′(5′H)-yl)methyl)-N-(4,5-dimethylisoxazol-3-yl)-2′-(ethoxymethyl)-[1,1′-biphenyl]-2-sulfonamide]	9760	2630	30	228	–	–	–	–	–	–	–
[2H]C([2H])(OCC)c1cc(CN2C(=O)C3(CCCC3)N=C2CCCC)ccc1-c1ccccc1S(=O)(=O)Nc1noc(C)c1Cl [Example 49, 4′-((2-butyl-4-oxo-1,3-diazospiro[4.4]non-1-en-3-yl)methyl)-N-(4-chloro-5-methylisoxazol-3-yl)-2′-(ethoxydeuteriummethyl)-[1,1′-biphenyl]-2-sulfonamide]	–	–	–	–	26.2	30.7	–	–	–	–	–
CCCCC1=NC2(CCCC2)C(=O)N1Cc1ccc(-c2ccccc2S(=O)(=O)Nc2noc(C)c2Br)c(COCC)c1 [Example 46, 2-[4-[(2-butyl-4-oxo-1,3-diazaspiro[4.4]non-1-en-3-yl)methyl]-2-(ethoxymethyl)phenyl]-N-(4-bromo-5-methyl-isoxazol-3-yl)benzsulfamide]	13800	2300	30	396	28.9	23.8	> 100	> 100	> 100	16.7	> 100
